Read-outs that look alike come from different tables or passages of the source.
Test system: PC-3 cells
Test: MTT cell viability assay, PC-3 cells
Format: cell-based
Settings: Homo sapiens, read-out: decrease in cell viability; for cytotoxicity at 10 µM: PC-3, fisetin 10 μM; for cytotoxicity at 20 µM: PC-3, fisetin 20 μM; for cytotoxicity at 40 µM: PC-3, fisetin 40 μM; for cytotoxicity at 60 µM: PC-3, fisetin 60 μM
Description: obtained from ATCC (Manassas, Va.). LNCaP cells were cultured in Dulbecco's Modified Eagle's medium supplemented with 5% heat-inactivated fetal bovine serum and 1% penicillin/streptomycin (P-S). CWR22Ru1 and PC-3 cells were grown in RPMI 1640 (Invitrogen) supplemented with 10% fetal bovine serum and 1% P-S. Human prostate epithelial cells (PrEC) were obtained from Cambrex Bioscience (Walkersville, Md.) and grown in prostate epithelial basal cell medium (Cambrex Bioscience) according to the manufacturer's instructions. The cells were maintained under standard cell culture conditions at 37° C. and 5% CO2 in a humid environment. Fisetin dissolved in dimethyl sulfoxide (final concentration 0.1% v/v) was used for the treatment of cells. The cells (60-70% confluent) were treated with fisetin (10-60 μM) for 24 and 48 h in complete growth medium.
Cell viability. The effect of fisetin on the viability of cells was determined by 3-[4,5-dimethylthiazol-2-yl]-2,5-diphenyl tetrazoliumbromide assay. LNCaP, CWR22Ru1, PC-3 and PrEC cells were plated at 1×10^4 cells per well in 200 μl of complete culture medium containing 10-60 μM concentrations of fisetin in 96-well microtiter plates for 24 and 48 h. After incubation for specified times at 37° C. in a humidified incubator, 3-[4,5-dimethylthiazol-2-yl]-2,5-diphenyl tetrazoliumbromide (5 mg/ml in PBS) was added to each well and incubated for 2 h, after which the plate was centrifuged at 1,800×g for 5 min at 4° C. The absorbance was recorded on a microplate reader at the wavelength of 540 nm. The effect of fisetin on growth inhibition was assessed as percent cell viability where DMSO-treated cells were taken as 100% viable. DMSO at the concentrations used was without any effect on cell viability.

## O=c1c(O)c(-c2ccc(O)c(O)c2)oc2cc(O)ccc12 [fisetin, 3,3′,4′,7-tetrahydroxyflavone]
24 h
  cytotoxicity at 10 µM: 7%
  cytotoxicity at 20 µM: 18%
  cytotoxicity at 40 µM: 24%
  cytotoxicity at 60 µM: 33%
48 h
  cytotoxicity at 10 µM: 11%
  cytotoxicity at 20 µM: 25%
  cytotoxicity at 40 µM: 32%
  cytotoxicity at 60 µM: 46%

From US20100010078A1, “METHODS OF TREATING ANDROGEN DEPENDENT PROSTATE CANCER BY ADMINISTERING AN ACTIVE PHARMACEUTICAL INGREDIENT BEING FISETIN, 3,3',4',7-TETRAHYDROXYFLAVONE OR A DERIVATIVE THEREOF, IN AN ORAL, TRANSDERMAL OR TOPICAL DOSAGE FORM” (priority 2008, published 2010)
